Compound: CC(C)CCN1c2nc(Nc3cc(F)c(O)c(F)c3)ncc2N(C)C(=O)C1C [BI-D1870] + Cc1nc(NC(=O)N2CCC[C@H]2C(N)=O)sc1-c1ccnc(C(C)(C)C(F)(F)F)c1 [Alpelisib] (partner 2 µM)
Experiment: relative viability (nuclei count vs DMSO), 5 days (fraction); higher = more cells survive
Settings: first compound 0.04 µM
Summary of the method: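 Nuclei were stained with Hoechst during a one-step fixation (final 0.05% Triton X-100, 1% formaldehyde, 1 ug/ml Hoechst) carried out 5 days after dosing, then counted on 4× images. The cells, lung cancer lines in 1536-well plates, had been dosed by pin tool the day after seeding with one drug alone or a fixed anchor-drug dose plus five library-drug doses (not always all listed) in √10 steps. Relative viability is the nuclei count in treated wells divided by that in vehicle wells, and each value is the median of duplicate plates.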

Cell Line | relative viability
NCI-H727 | 0.591
EBC-1 | 0.925
NCI-H1703 | 0.263
NCI-H1993 | 0.619
SW 1573 | 0.934
NCI-H838 | 1.04
LCLC-103H | 0.96
NCI-H520 | 0.903
NCI-H2126 | 0.749
EMC-BAC-2 | 0.815
NCI-H2085 | 0.986
Calu-6 | 1
HCC-366 | 0.47
NCI-H1666 | 0.77
NCI-H596 | 0.456
LK-2 | 1.22
NCI-H2087 | 1.15
SK-MES-1 | 0.956
H3255 | 0.702
COR-L23 | 0.978
COR-L 105 | 1.2
IA-LM | 0.687
NCI-H2170 | 0.867
A549 | 0.907
HCC-78 | 0.323
NCI-H1299 | 1.05
NCI-H1563 | 0.946
ABC-1 | 1.18

Same assay, conditions: first compound 0.1265 µM

Cell Line | relative viability
NCI-H727 | 0.448
EBC-1 | 0.625
NCI-H1703 | 0.341
NCI-H1993 | 0.677
SW 1573 | 0.64
NCI-H838 | 0.883
LCLC-103H | 0.937
NCI-H520 | 0.76
NCI-H2126 | 0.786
EMC-BAC-2 | 0.649
NCI-H2085 | 0.886
Calu-6 | 0.843
HCC-366 | 0.351
NCI-H1666 | 0.767
NCI-H596 | 0.487
LK-2 | 1.11
NCI-H2087 | 1.05
SK-MES-1 | 0.859
H3255 | 0.658
COR-L23 | 0.731
COR-L 105 | 0.803
IA-LM | 0.673
NCI-H2170 | 0.705
A549 | 0.639
HCC-78 | 0.279
NCI-H1299 | 1.04
NCI-H1563 | 0.863
ABC-1 | 0.972

Same assay, conditions: first compound 0.4 µM

Cell Line | relative viability
NCI-H727 | 0.526
EBC-1 | 0.786
NCI-H1703 | 0.301
NCI-H1993 | 0.643
SW 1573 | 0.723
NCI-H838 | 0.923
LCLC-103H | 0.864
NCI-H520 | 0.85
NCI-H2126 | 0.781
EMC-BAC-2 | 0.723
NCI-H2085 | 0.92
Calu-6 | 0.951
HCC-366 | 0.344
NCI-H1666 | 0.987
NCI-H596 | 0.43
LK-2 | 1.11
NCI-H2087 | 1.09
SK-MES-1 | 0.78
H3255 | 0.722
COR-L23 | 0.875
COR-L 105 | 1.29
IA-LM | 0.759
NCI-H2170 | 0.818
A549 | 0.891
HCC-78 | 0.301
NCI-H1299 | 1.07
NCI-H1563 | 0.982
ABC-1 | 1.12

Same assay, conditions: first compound 1.265 µM

Cell Line | relative viability
NCI-H727 | 0.63
EBC-1 | 0.475
NCI-H1703 | 0.379
NCI-H1993 | 0.708
SW 1573 | 0.794
NCI-H838 | 1.17
LCLC-103H | 1.1
NCI-H520 | 0.953
NCI-H2126 | 0.759
EMC-BAC-2 | 0.765
NCI-H2085 | 0.938
Calu-6 | 0.7
HCC-366 | 0.514
NCI-H1666 | 1.14
NCI-H596 | 0.511
LK-2 | 1.32
NCI-H2087 | 1.23
SK-MES-1 | 0.973
H3255 | 0.894
COR-L23 | 0.722
COR-L 105 | 1.09
IA-LM | 0.765
NCI-H2170 | 0.751
A549 | 0.609
HCC-78 | 0.321
NCI-H1299 | 1.15
NCI-H1563 | 0.897
ABC-1 | 1.19

Same assay, conditions: first compound 4 µM

Cell Line | relative viability
NCI-H727 | 0.445
EBC-1 | 0.297
NCI-H1703 | 0.305
NCI-H1993 | 0.811
SW 1573 | 0.661
NCI-H838 | 1.04
LCLC-103H | 0.874
NCI-H520 | 0.764
NCI-H2126 | 0.723
EMC-BAC-2 | 0.69
NCI-H2085 | 0.74
Calu-6 | 0.644
HCC-366 | 0.359
NCI-H1666 | 0.816
NCI-H596 | 0.512
LK-2 | 0.608
NCI-H2087 | 0.877
SK-MES-1 | 0.644
H3255 | 0.742

Reference: the supplement of paper PMC10307832
